In PMC8125995, “In Vitro Antiplasmodial and Cytotoxic Activities of Compounds from the Roots of Eriosema montanum Baker f. (Fabaceae)” (Molecules, 2021):
Values after ≈ are worked out from the molar mass of the structure shown. Read-outs that look alike come from different tables or passages of the source.

What was measured:
[1] = system: 3D7 strain of Plasmodium falciparum; test: In vitro antiplasmodial activity (SYBR Green, 48 h); type: cell-based; conditions: read-out: Antiplasmodial Activity IC50
Description: Continuous in vitro cultures of asexual erythrocyte stages of P. falciparum, chloroquine-sensitive 3D7 strain was maintained according to the procedure of Trager and Jensen. Strains were obtained from ATCC, Bei Resources. The host cells were human red blood cells (A+). […] Compound stock solutions were prepared in DMSO at 10 mg/mL (for an extract) and 1 mg/mL (for an isolated compound). Then, the solution is directly diluted in the medium; each test sample was applied in a series of eight 2-fold dilutions in a 96-well plate, starting with 100 µg/mL and 10 µg/mL for the crude extract and purified compounds, respectively, and tested in triplicate. The effect of compounds on the parasite growth was estimated, after 48 h incubation, by using the SYBR Green, a DNA intercalating compound. Artemisinin (Sigma-Aldrich, Machelen, Belgium), at an initial concentration of 100 ng/mL, was used as positive control in all experiments. The half-maximal inhibitory concentration (IC50) values were calculated from graphs.

different cell lines = system: different cell lines; set-up: method as in doi:10.1016/j.phytol.2020.10.005; conditions: cited from earlier work
[2] = Cytotoxicity, Cell Titer-Glo Luminescent Cell Viability Assay; type: cell-based; conditions: human
Description: (§1) The cytotoxic effect of the crude extract and compounds thereof on THP-1 human acute leukemia cell line was carried using the Cell Titer-Glo Luminescent Cell Viability Assay (Promega). […] Cells were then incubated in the presence or absence of tested compounds for 3 days at 37 °C in a humidified 5% CO2 atmosphere in a 96-wells plate at a cell density of two thousand cells/well. The cell viability was then evaluated using Cell Titer-Glo Luminescent Cell Viability Assay (Promega) according to the manufacturer’s instructions.

[3] = system: THP-1 human acute leukemia cell line; test: as above; type: cell-based; conditions: 3 days
Description: as §1

[4] = set-up: method as in PMID 21872416; conditions: antiplasmodial activity; read-out: reported IC50; cited from earlier work
[5] = chloroquine-sensitive 3D7 strain, 48 h incubation, SYBR Green, mean ± S.D. of two, three or four independent experiments

SMILES	IC50 [1, 5] [µg/mL]	CC50 at 3 days ([2]; Cytotoxic Activity CC50) [µg/mL]	also measured
O=C(O)C[C@](O)(Cc1ccc(O)cc1)C(=O)O [Compound 1, eucomic acid]	0.057 ± 0.031 (≈ 0.237 µM)	375 ± 97.3 (≈ 1560 µM)	CC50 (different cell lines): > 100 µM
O=c1c(-c2ccc(O)c(O)c2)coc2cc(O)cc(O)c12 [Compound 6, Isoluteolin]	0.121 ± 0.048 (≈ 0.423 µM)	243 ± 73 (≈ 848 µM)	–
O=c1c(-c2ccc(O)cc2)coc2cc(O)cc(O)c12 [Compound 7, genistein]	–	–	IC50 ([1]; 3D7, 48 h): 7.74 ± 0.802 µg/mL (≈ 28.6 µM); CC50 at 3 days ([2]; THP-1 cells, 3 days incubation, read-out: Cytotoxic Activity CC50): 116 µg/mL (≈ 430 µM)
O=C(O)CC(O)C(=O)O (stereo not shown) [Malic acid, malic acid]	–	–	IC50 [4]: > 10 µM

Further lines, with some results ahead:

IC50 [1, 5] [µg/mL]	SMILES	CC50 at 3 days ([2]; Cytotoxic Activity CC50) [µg/mL]	also measured
0.0067 ± 0.003 (≈ 0.0237 µM)	C[C@@H]1CC[C@H]2[C@@H](C)C(=O)O[C@@H]3O[C@@]4(C)CC[C@@H]1[C@]32OO4 [Artemisinin, reference compound]	–	–
0.113 ± 0.074 (≈ 0.253 µM)	COc1cc(OC2OC(CO)C(O)C(O)C2O)cc2occ(-c3ccc(O)cc3)c(=O)c12 (stereo not shown) [Compound 2, 7-O-glucopyranosyl-isoprunetin]	322 ± 20.6 (≈ 721 µM)	–
7.87 ± 1.72 (≈ 18.2 µM)	O=c1c(-c2ccc(O)cc2)coc2cc(O[C@@H]3O[C@H](CO)[C@@H](O)[C@H](O)[C@H]3O)cc(O)c12 [Compound 3, genistin]	169 (≈ 390 µM)	Cytotoxic Activity CC50 [3]: 196.3 ± 44.5 µg/mL
> 10	O=C(O)CC(=O)OC[C@H]1O[C@@H](Oc2cc(O)c3c(=O)c(-c4ccc(O)cc4)coc3c2)[C@H](O)[C@@H](O)[C@@H]1O [Compound 4, malonyl genistin]	182 (≈ 351 µM)	Cytotoxic Activity CC50 [3]: 223.3 ± 58.6 µg/mL
0.042 (≈ 0.148 µM)	COc1cc(O)cc2occ(-c3ccc(O)cc3)c(=O)c12 [Compound 5, isoprunetin]	221 ± 33.3 (≈ 778 µM)	–
